Common to all, as to format: physicochemical
Data set [1] in a line: Light transmission at 580 nm (% T). To be noted: 580 nm. The procedure:
The translucency of a composition may be measured by placing a sample of standardised thickness in the light path of a spectrophotometer and measuring transmittance, as a percentage of light transmitted in the absence of the gel.
This test was carried out using a dual-beam spectrophotometer. The sample of composition was poured hot into a 4.5 ml cuvette made of poly(methyl-methacrylate) (PMMA) and allowed to cool to an ambient temperature of 20-25° C. Such a cuvette gives a 1 cm thickness of composition. […] A transmittence measured at any temperature in the range from 20-25° C. is usually adequately accurate, but measurement is made at 22° C. if more precision is required.

Data set [2] is described as follows: Visual assessment score (clarity of gel in 1 cm cuvette). To be noted: for Clarity Visual (assessment score): scale −12 to 8. The source says: A gel contained within a 1 cm thick cuvette was placed directly on to a sheet of white paper on which 21 sets of figures where printed in black. The size and thickness of the figures varied systematically and were numbered from −12 (the largest, thickest set) through 0 to 8 (the smallest thinnest set) The score given to each gel was the highest numbered set which could be read clearly through the gel, the higher the number, the higher the clarity.

The nature of data set [3]: Gelling of water-immiscible cosmetic liquids in 96 well glass micro-titre plate. Further details: key: gel; g4: gel after overnight (18 hrs) storage at 4° C.; g22: gel after overnight (18 hrs) storage at 22° C.; sg: soft gel; sg22: soft gel after overnight (18 hrs) storage at 22° C.; solution; *: the test at 4° C. was not carried out. To be noted: for gelling of ISA: 150° C. 2.5 hours, cooled to ambient. The procedure: In this Example, various samples of esterified cellobiose prepared as in Example 1 or 2 above, were used to gel water-immiscible cosmetic liquids, in accordance with the procedure given below, in which a large number of gels can be prepared simultaneously.
The samples were tested in a 96 well (8×12 rows) glass micro-titre plate. […] About 0.01 or 0.02 g of each esterified cellobiose material was placed into 8 consecutive wells in a single row, so that each well contained approximately 5% or 10% of the cellobiose ester. The balance in each well comprised the cosmetic liquid by addition of approximately 0.2 g of the respective liquid to each cell. A glass lid was placed on top of the plate. The plate was carefully placed in a thermostatically controlled fan-assisted oven set at 150° C. for 2.5 hours. The plate was removed from the oven and allowed to cool naturally to ambient laboratory temperature. The contents of the wells were assessed at the end of the cooling period, by visual inspection and by poking the contents of each well with a micro-spatula. The plates were stored at […] for 18 hours and the contents inspected, and further stored for 18 hours at 4° C. and inspected for a third time. The results obtained in the tests are summarised in Table 5 below, in which the legend is as follows: […]

Data set [4] is described as follows: Stability testing of gels: crystal growth visible by eye on storage at 37° C. To be noted: 9% of REF1 and 1% of additional structurant; after 15 days at 37° C. The procedure:
Gels were made up using 10% structurant in a 60:40 mixture of Hydrogenated Polyisobutene (Panalene L14E):DC245. The gels, in sealed glass bottles, were left to stand for 18 hrs at room temperature, after which they were transferred to an oven thermostatically controlled to 37° C. Samples were checked periodically for signs of crystal growth visible by eye. REF1 is cellobiose octanonanoate.
Gels were made up and tested in accordance with the procedure in Example 6, as such or modified by employing a weight ratio of 9% of REF1 and 1% of an additional structurant as specified in Table 13 below.
The test procedure of Example 9 was repeated, but using ACB structurant REF2 alone as the structurant or to which a CHME structurant was added.

Setting [5] is: 9% REF4 plus 1% of the named material.
The mark [6] stands for this setting: 9% REF4 plus 1% of the named material in 60:40 hydrogenated polydecene:DC245.
Setting [7] is: 5% cellobiose ester in Fluid AP.
[8] abbreviates: 5% cellobiose ester in Mineral oil.
[9] abbreviates: 5% cellobiose ester in Polydecene.
The mark [10] stands for this setting: 10% cellobiose ester in Fluid AP.
Where [11] appears, read: 10% cellobiose ester in Mineral oil.
Setting [12] is: 10% cellobiose ester in Polydecene.
The mark [13] stands for this setting: 9% REF2 and 1% of the specified ester in 60:40 hydrogenated polydecene:DC245.
[14] abbreviates: 60:40 hydrogenated polydecene:DC245 gelled with 9% REF2 and 1% of the specified cellobiose ester.
Where [15] appears, read: Ex 2.6:REF 4 at stated weight ratio, total 10% in 60:40 w/w Silkflo 364NF:DC245.

On to `CCCCCCCCCC(=O)OCC1OC(O)C(OC(=O)CCCCCCCCC)C(OC(=O)CCCCCCCCC)C1OC1OC(COC(=O)CCCCCCCCC)C(OC(=O)CCCCCCCCC)C(OC(=O)CCCCCCCCC)C1OC(=O)CCCCCCCCC` (mixture of isomers) [REF 6, reference compound], for which the “Clarity % T” value in data set [1] (setting [5]) came out at 0.8%. The “Clarity Visual (appearance)” value in data set [2] (setting [6]) is reported as “opaque”. In addition, in data set [2] (setting [5]), the “Clarity Visual (assessment score)” value is under −12.
Take `CCCCCCCCCC(=O)OCC1OC(OC2C(COC(=O)CCCCCCCCC)OC(OC(=O)C3CCCCC3)C(OC(=O)CCCCCCCCC)C2OC(=O)CCCCCCCCC)C(OC(=O)CCCCCCCCC)C(OC(=O)CCCCCCCCC)C1OC(=O)CCCCCCCCC` (mixture of isomers) [Ex 2.10]: the “Clarity % T” value in data set [1] (setting [5]) stood at 5.9%. The “gelling of DC556” value in data set [3] (5% cellobiose ester in DC556) and in data set [3] (10% cellobiose ester in DC556) was “gel” each time. Also, the “gelling of Fluid AP” value in data set [3] (setting [7]) and in data set [3] (setting [10]) was “gel” throughout. For the same compound, the entries for the “gelling of ISA” value in data set [3] (5% cellobiose ester in ISA) and in data set [3] (10% cellobiose ester in ISA) were “g22” and “gel”, respectively. In addition, the “gelling of Mineral oil” value in data set [3] (setting [8]) and in data set [3] (setting [11]) was “gel” throughout. The “gelling of Polydecene” value in data set [3] (setting [9]) and in data set [3] (setting [12]) was “gel” in each case. Besides, the “Clarity Visual (appearance)” value in data set [2] (setting [6]) was “translucent”. Besides, the “Clarity Visual (assessment score)” value in data set [2] (setting [5]) was −5.
Take `CCCCCCCCCC(=O)OCC1OC(OC2C(COC(=O)CCCCCCCCC)OC(OC(=O)c3ccc(-c4ccccc4)cc3)C(OC(=O)CCCCCCCCC)C2OC(=O)CCCCCCCCC)C(OC(=O)CCCCCCCCC)C(OC(=O)CCCCCCCCC)C1OC(=O)CCCCCCCCC` (mixture of isomers) [Ex 2.9]: the “Clarity % T” value in data set [1] (setting [5]) came to 7.7%. Also, the “gelling of DC556” value in data set [3] (5% cellobiose ester in DC556) and in data set [3] (10% cellobiose ester in DC556) was “gel” in each case. The “gelling of Fluid AP” value in data set [3] (setting [7]) and in data set [3] (setting [10]) was “gel” in each case. Further, the “gelling of ISA” value in data set [3] (5% cellobiose ester in ISA) is “g22”; in data set [3] (10% cellobiose ester in ISA) it was “gel”. Moreover, the “gelling of Mineral oil” value in data set [3] (setting [8]) is “sg”; in data set [3] (setting [11]) it was “gel”. The “gelling of Polydecene” value in data set [3] (setting [9]) and in data set [3] (setting [12]) was “gel” each time. In addition, the “Clarity Visual (appearance)” value in data set [2] (setting [6]) is “translucent”. The “Clarity Visual (assessment score)” value in data set [2] (setting [5]) is on record as −3.
For `CCCCCCCCCC(=O)OCC1OC(OC2C(COC(=O)CCCCCCCCC)OC(OC(=O)c3ccccc3)C(OC(=O)CCCCCCCCC)C2OC(=O)CCCCCCCCC)C(OC(=O)CCCCCCCCC)C(OC(=O)CCCCCCCCC)C1OC(=O)CCCCCCCCC` (mixture of isomers) [Ex 2.1], in data set [1] (setting [5]), the “Clarity % T” value was found to be 9.53%. Also, the “gelling of DC556” value in data set [3] (5% cellobiose ester in DC556) and in data set [3] (10% cellobiose ester in DC556) was “gel” each time. For the same compound, the “gelling of Fluid AP” value in data set [3] (setting [7]) and in data set [3] (setting [10]) was “gel” in each case. The “gelling of ISA” value in data set [3] (5% cellobiose ester in ISA) and in data set [3] (10% cellobiose ester in ISA) was “gel” each time. The “gelling of Mineral oil” value in data set [3] (setting [8]) and in data set [3] (setting [11]) was “gel” in each case. Moreover, the “gelling of Polydecene” value in data set [3] (setting [9]) and in data set [3] (setting [12]) was “gel” each time. Besides, the “Clarity Visual (appearance)” value in data set [2] (setting [6]) was “translucent”. In addition, the “Clarity Visual (assessment score)” value in data set [2] (setting [5]) was −1.
For the compound `CCCCCCCCC(=O)OCC1OC(O)C(OC(=O)CCCCCCCC)C(OC(=O)CCCCCCCC)C1OC1OC(COC(=O)CCCCCCCC)C(OC(=O)CCCCCCCC)C(OC(=O)CCCCCCCC)C1OC(=O)CCCCCCCC` (mixture of isomers) [REF 5, reference compound], the “Clarity % T” value in data set [1] (setting [13]) is listed as 31%. Besides, in data set [2] (setting [13]), the “Clarity Visual (assessment score)” value is “translucent 4”. Also, the “Clarity Visual (appearance)” value in data set [2] (setting [14]) is “transparent/”.
Take `CCCCCCCCCCCCCCCC(=O)OC1OC(COC(=O)CCCCCCCC)C(OC2OC(COC(=O)CCCCCCCC)C(OC(=O)CCCCCCCC)C(OC(=O)CCCCCCCC)C2OC(=O)CCCCCCCC)C(OC(=O)CCCCCCCC)C1OC(=O)CCCCCCCC` (mixture of isomers) [Ex 1.9]: the “Clarity % T” value in data set [1] (setting [13]) came out at 45%. Moreover, in data set [3] (5% cellobiose ester in DC556), the “gelling of DC556” value is “gel”. In data set [3] (setting [7]), the “gelling of Fluid AP” value was “gel”. For the same compound, the “gelling of IPM” value in data set [3] (5% cellobiose ester in IPM) and in data set [3] (10% cellobiose ester in IPM) was “g4” in each case. In data set [3] (5% cellobiose ester in ISA), the “gelling of ISA” value was “g22”. Further, the “gelling of Mineral oil” value in data set [3] (setting [8]) is reported as “g22”. The “gelling of Polydecene” value in data set [3] (setting [9]) was “gel”. For the same compound, the “Clarity Visual (assessment score)” value in data set [2] (setting [13]) is given as over 8. Also, the “Clarity Visual (appearance)” value in data set [2] (setting [14]) was “transparent”.
In the case of `CCCCCCCCCC(=O)OCC1OC(OC2C(COC(=O)CCCCCCCCC)OC(OC(=O)CCCCCCCCC)C(OC(=O)CCCCCCCCC)C2OC(=O)CCCCCCCCC)C(OC(=O)CCCCCCCCC)C(OC(=O)CCCCCCCCC)C1OC(=O)CCCCCCCCC` (mixture of isomers) [REF 4, reference compound], the “Clarity % T” value in data set [1] (setting [5]) and in data set [1] (setting [15]) was 0.36% throughout. Also, the “Clarity Visual (appearance)” value in data set [2] (setting [6]) is “opaque”. In addition, in data set [2] (setting [5]), the “Clarity Visual (assessment score)” value is under −12. Moreover, the “Clarity Visual Score” value in data set [2] (setting [15]) was under −12.
On to `CCCCCCCCCCCCCCCC(=O)OC1OC(COC(=O)CCCCCCCC)C(OC2OC(COC(=O)CCCCCCCC)C(OC(=O)CCCCCCCC)C(OC(=O)CCCCCCCC)C2OC(=O)CCCCCCCC)C(OC(=O)CCCCCCCC)C1OC(=O)CCCCCCCC` (mixture of isomers) [Ex 1.8], for which, in data set [4], the Observations result is “No crystals after 15 days at 37 °C”. Besides, the “gelling of DC556” value in data set [3] (5% cellobiose ester in DC556) and in data set [3] (10% cellobiose ester in DC556) was “gel” throughout. The “gelling of Fluid AP” value in data set [3] (setting [7]) and in data set [3] (setting [10]) was “gel” each time. Moreover, the “gelling of ISA” value in data set [3] (5% cellobiose ester in ISA) and in data set [3] (10% cellobiose ester in ISA) was “g22” throughout. The “gelling of Mineral oil” value in data set [3] (setting [8]) and in data set [3] (setting [11]) was “g22” throughout. The “gelling of Polydecene” value in data set [3] (setting [9]) and in data set [3] (setting [12]) was “gel” throughout.
For `CCCCCCCCCC(=O)OCC1OC(OC2C(COC(=O)CCCCCCCCC)OC(OC(=O)c3ccccc3)C(OC(=O)CCCCCCCCC)C2OC(=O)CCCCCCCCC)C(OC(=O)CCCCCCCCC)C(OC(=O)CCCCCCCCC)C1OC(=O)CCCCCCCCC` (mixture of isomers) [Ex 2.6], the “Clarity % T” value in data set [1] (setting [5]) turned out to be 4.5%. In addition, the “Clarity Visual (appearance)” value in data set [2] (setting [6]) was “translucent”. Besides, the “Clarity Visual (assessment score)” value in data set [2] (setting [5]) is listed as −8.
As for `CCCCCCCCC(=O)OCC1OC(OC2C(COC(=O)CCCCCCCC)OC(OC(=O)C3CCCCC3)C(OC(=O)CCCCCCCC)C2OC(=O)CCCCCCCC)C(OC(=O)CCCCCCCC)C(OC(=O)CCCCCCCC)C1OC(=O)CCCCCCCC` (mixture of isomers) [Ex 3.3, cellobiose heptanonanoate monocyclohexanoate], the “% T” value in data set [1] (gel in 60:40 w/w Silkflo 364:DC245) was determined as 53%. The compound also had a Visual in data set [2] (gel in 60:40 w/w Silkflo 364:DC245, score scale −12 to 8) of over 8.

The values above are taken from patent publication US6974804B2, “Esters” (Unilever Home & Personal Care USA, division of Conopco, Inc., priority 2000, dated 2005).
